From publication PMC12323867 (RSC Medicinal Chemistry, 2025)
Read-outs that look alike come from different tables or passages of the source.

What was measured:
LSD1 [1] = conditions: cited from earlier work
H3K4me2 levels in cells = tested on: H3K4me2 levels in cells; parameters: method as in PMID 38742921; conditions: cited from earlier work
LSD1 [2] = tested on: LSD1; parameters: method as in PMID 38742921; conditions: cited from earlier work
[3] = molecular target: T1, LSD1-HDAC1-CoREST complex (Homo sapiens, UniProt O60341); assay: LSD1 HRP-coupled demethylase assay, SP2509/SP2577 analogues; assay type: biochemical; conditions: LSD1 enzymatic activity, complex 50 nM, HRP assay; read-out: LSD1-HDAC1-CoREST IC50
T1 construct: full length native LSD1 (UniProt ID: O60341); made in house; host or cells: HEK 293F cells (co-transfection, pcDNA3 vectors)
Method: The analogues synthesised were then tested for their ability to inhibit LSD1 using purified LSD1-HDAC1-CoREST complex (Fig. 2B). We used an established fluorescent read out horseradish peroxidase (HRP) assay to monitor LSD1 enzymatic activity in the CoREST complex[8] (see ESI ^† for full details).
2. Supplementary Information: Biology
2.1. LSD-HDAC1-CoREST expression and purification
Lysis Buffer (Buffer A) Wash Buffer (Buffer B)
• 50 mM Tris/Cl pH 7.5 • 50 mM Tris/Cl pH 7.5
• 50 mM Potassium Acetate • 50 mM Potassium Acetate […]
Cleavage Buffer (Buffer C) Gel Filtration Buffer (Buffer D)
• 50 mM Tris/Cl pH 7.5 Filtered at vacuum.
• 50 mM Potassium Acetate • 50 mM Tris/Cl pH 7.5
• 5 % v/v Glycerol • 50 mM Potassium Acetate
• 0.5 mM tris(2- • 0.5 mM TCEP carboxyethyl)phosphine (TCEP)
The CoREST ternary complex was comprised of full length native LSD1 (UniProt ID: O60341), full length HDAC1 (UniProt ID: Q13547) and N-terminally truncated RCOR1 (86-485aa) (UniProt ID:
Q9UKL0). Protein constructs were cloned into pcDNA3 vector. The RCOR1 constructs contained an N-terminal (His)10(Flag)3 tag followed by a Tev protease cleavage site. The constructs for ternary complex were co-transfected into suspension-grow HEK 293F cells (Thermofisher Scientific) with polyethylenimine (PEI) (Sigma) and harvested after 48 hours. This section of the procedure was carried out as described previously in literature.11,12
Cell pellets from 1.2 L culture were defrosted, and buffer A (30 mL) was added. The solution was sonicated (Soniprep 150) in an beaker of ice using a 9 mm probe at 10 ampules; operated with 10 […]
2.2. SP2509/SP2577 analogues LSD1 HRP-coupled demethylase assay protocol The commercial reagents for the assay were HRP and Amplex® Ultrared, which are available to purchase from ThermoFisher (31490) and Invitrogen (10737474), respectively. HRP was made up to 8 mg/mL stock solution in 1xPBS buffer, divided into 10 µL aliquots, snap-frozen in liquid nitrogen and stored at -80 °C. Amplex® Ultrared was made up to 10 mM solution in DMSO, divided into 20 µL aliquots and wrapped in foil, away from light and stored at -20 °C. For each assay experiment, CoREST complex was diluted to 500 nM in assay buffer (20 mM HEPES pH 7.5 and 50 mM NaCl).
HRP was defrosted by diluting each aliquot in 90 µL 1xPBS solution, making a 0.8 mg/mL solution.
Amplex® Ultrared was made up to 200 µM in assay buffer. HRP and Amplex® Ultrared were pre-mixed before addition to the plate. H3K4Me2 substrate (4 mM in deionised water) was diluted to 300 µM in assay buffer. All stocks were stored on ice during assay preparation.
The assay was carried out using a ‘black well’ 96 well plate (Corning no. 3915) in a reaction volume of 100 μL. The final concentrations in the assay were as follows: 50 nM CoREST complex, 10 μM Amplex® UltraRed, 0.04 mg/mL HRP and 15 μM H3K4Me2 peptide substrate. The final DMSO concentration in each well was 1.1 %. Three wells of each experiments were designated ‘background controls’ and contained 85 μL assay buffer, premixed Amplex® UltraRed and HRP (10 µL) and H3K4Me peptide substrate (300 μM, 5 µL).
A stock solution of inhibitor (1 -5 mM in DMSO) was subjected to an inhibitor dilution series, in Eppendorf tubes, in 100 % DMSO. Each new inhibitor stock (4 μL) was diluted in assay buffer (1 in 75) within a new Eppendorf set with assay buffer (20 mM HEPES pH 7.5 and 50 m M NaCl), ensuring the percentage of DMSO was consistent throughout the series. To each well of interest, Inhibitor in assay buffer (75 μL) was added, and CoREST complex (500 nM, 10 µL) was added thereafter. The plate was placed on a rocker and pre -incubated for 30 mins. To each well, premixed Amplex® UltraRed and HRP (10 µL) was added before H3K4Me 2 peptide substrate in assay buffer solution (300 μM, 5 µL) was added to the wall of the plate. The plate was covered in foil and spun down for one minute before being placed in the plate reader. The final percentage concentration of DMSO in […]

For `C/C(=N\NC(=O)c1cccc(S(=O)(=O)N2CCN(C)CC2)c1)c1cc(Cl)ccc1O` [SP2577], the IC50 (LSD1 [1]; read-out: LSD1 IC50) is given as 1330 nM, the IC50 (LSD1 [1]; read-out: LSD1 mean IC50) is given as 127 nM and the “H3K4me2 levels in cells” value (H3K4me2 levels in cells) is given as “failed to increase H3K4me2 levels”. For the same compound, the “ability to increase H3K4me2 on peptides and nucleosomes” value (LSD1 [2]) was “no effect” and the IC50 [3] was 306 nM.
